Assay results taken from patent publication US20060172361A1, “Assay for detection of translocase enzyme activity in drug screening” (AstraZeneca AB, priority 2000, published 2006).

Assays:
transferase enzyme = experiment: Scintillation proximity assay of transferase alone, with pre-formed Lipid I and Tunicamycin block, using E. coli AMA1004 ΔponB membranes (Example 4); assay type: biochemical, Escherichia coli; conditions: after subtracting 0% reaction readings
Description: Microbiol., (1985), 131, 2839-2845. The plate was incubated for 20 min at 37° C.
(ii) Tunicamycin was then added to a final concentration of 10 μg/ml, followed by a test compound (e.g. Vancomycin or Nisin) of varying concentration in dimethyl sulphoxide. Nisin and Vancomycin are known antagonists of the transferase enzyme.
(iii) Then to the reaction well, in a 5 μl volume, the substrate for the transferase was added: 2.5 μM tritiated UDP-N-acetyl glucosamine (0.5 μCi per well). The microtitre plate was incubated for 5 min at 37° C.
(iv) The reaction was terminated by diluting out the radiolabel i.e. by addition of 25 μl of 200 μM unlabelled UDP-GlcNAc.

[1] = system: translocase and transferase enzymes; experiment: Scintillation proximity assay of Lipid II synthesis (translocase plus transferase) with lysozyme-prepared E. coli AMA1004 membranes (Example 3); conditions: 100 μM test compound; after subtracting 0% reaction readings
Description: (i) The wells of a microtitre plate were individually filled with a total volume of 25 μl of a reaction mixture comprising an aqueous buffer solution of 50 mM HEPES-ammonia (N-[2-Hydroxyethyl]piperazine-N′-[2-ethanesulfonic acid]) (pH 7.5), and 10 mM magnesium chloride 15 μM UDP-MurNAc-L-alanine-γ-D-glutamic acid-m-diaminopimelic acid-D-alanine-D-alanine, 2.5 μM tritiated UDP-N-acetyl glucosamine (0.2 μCi per well), 6 μg of Escherichia coli AMA1004 cell membranes prepared as described below and a solution of test compound (e.g. Tunicamycin, Vancomycin) of varying concentration in 4% dimethylsulphoxide.
Four wells of the microtitre plate were used as controls: two wells contained no UDP-N-acetylmuramylpentapeptide (0% reaction controls) and a further two wells contained no test compound (100% reaction controls).
If the purpose of the screen is to study the effect of an inhibitor of the transferase or translocase the test compound is added along with the substrates at step (i).
The E. coli membranes were prepared as follows.
Four to five colonies of the bacteria from an LB (Luria Bertani medium) agar plate were inoculated into 5 ml LB-broth and grown during the day (for 6-8 hours) at 37° C. […]
The plate was left for 3 hours/overnight at room temperature before being counted in the “Microbeta Trilux” counter.

| Molecule | % Enzyme Activity (transferase enzyme; 100 μM test compound) | % Inhibition [1] | % Enzyme Activity (transferase enzyme; 10 μg/ml test compound) |
| --- | --- | --- | --- |
| CN[C@H](CC(C)C)C(=O)N[C@H]1C(=O)N[C@@H](CC(N)=O)C(=O)N[C@H]2C(=O)N[C@H]3C(=O)N[C@H](C(=O)N[C@H](C(=O)O)c4cc(O)cc(O)c4-c4cc3ccc4O)[C@H](O)c3ccc(c(Cl)c3)Oc3cc2cc(c3O[C@@H]2O[C@H](CO)[C@@H](O)[C@H](O)[C@H]2O[C@H]2C[C@](C)(N)[C@H](O)[C@H](C)O2)Oc2ccc(cc2Cl)[C@H]1O [Vancomycin] | ˜50% | 82% | – |
| Nisin | – | – | ˜30% |
